Data set [1] has as its system MIA PaCa-2 tumor spheroids. Put plainly: 3D spheroid formation/growth assay. Format: cell-based, human. Further details: Spheroid Diameter Day 0 / Spheroid Diameter Day 9: unit not given here. Particulars: for Spheroid Diameter Day 0: Day 0 (baseline). How it is done: (§1) For the preliminary assessment of anticancer activity in a 2D cell culture system, an MIA PaCa-2 human pancreas epithelial carcinoma (CRL-1420™) cell line (ATCC, Manassas, VA, USA) was cultured in Dulbecco’s Modified Eagle Medium with 10% fetal bovine serum (FBS, v/v) (Gibco, Billings, MT, USA) and supplemented with 1% antibiotics (10,000 μg/mL streptomycin and 10,000 U/mL penicillin) (Gibco, Billings, MT, USA) at 37 °C in a humidified 5% CO2 atmosphere. For the in vitro modeling of the tumor microenvironment, compounds were also tested in a 3D spheroid test system. For this purpose, the MIA PaCa-2 human pancreas epithelial carcinoma (CRL-1420™) cell line and human dermal fibroblast cell line HDF (PCS-201-012) cells were used.
For 3D spheroid formation, the MIA PaCa-2 cells (PC cell line) and HDF cells were used according to the 3D Bioprinting method. To better simulate the tumor microenvironment, PC cells were mixed (1:1) with human fibroblasts. Briefly, the MIA PaCa-2 cells and human fibroblasts at 70–80% confluency were added to a 6-well plate and incubated with biocompatible NanoShuttle TM-PL (Bioprinting Kit, Greiner Bio-One, Germany) overnight at 37 °C in a humidified 5% CO2 atmosphere. After the nanoparticles were taken up by the cells, they were resuspended and seeded into an ultra-low attachment 96-well plate at a volume of 100 μL (2000 PC cells and 2000 human fibroblasts per well) volume. The plate was placed on a magnetic drive and incubated at 37 °C in a humidified 5% CO2 atmosphere until spheroids were formed. After two days of incubation, the spheroids were photographed using light microscopy (Carl Zeiss Primo Vert, Germany). Fresh medium containing 0.1, 1, 10, and 100 µM of tested compound was added to the wells. Photos were taken every 72 h, and the medium was replaced every 72 h. The effect of the tested compounds in 3D PC cell cultures was examined by measuring the size change of spheroids using ImageJ software (ImageJ 2.0 software, USA).

The target in data set [2] is T1, 5-LOX (Homo sapiens, UniProt P09917).
T1 construct: purchased MyBioSource
T1 sequence (P09917 1-674): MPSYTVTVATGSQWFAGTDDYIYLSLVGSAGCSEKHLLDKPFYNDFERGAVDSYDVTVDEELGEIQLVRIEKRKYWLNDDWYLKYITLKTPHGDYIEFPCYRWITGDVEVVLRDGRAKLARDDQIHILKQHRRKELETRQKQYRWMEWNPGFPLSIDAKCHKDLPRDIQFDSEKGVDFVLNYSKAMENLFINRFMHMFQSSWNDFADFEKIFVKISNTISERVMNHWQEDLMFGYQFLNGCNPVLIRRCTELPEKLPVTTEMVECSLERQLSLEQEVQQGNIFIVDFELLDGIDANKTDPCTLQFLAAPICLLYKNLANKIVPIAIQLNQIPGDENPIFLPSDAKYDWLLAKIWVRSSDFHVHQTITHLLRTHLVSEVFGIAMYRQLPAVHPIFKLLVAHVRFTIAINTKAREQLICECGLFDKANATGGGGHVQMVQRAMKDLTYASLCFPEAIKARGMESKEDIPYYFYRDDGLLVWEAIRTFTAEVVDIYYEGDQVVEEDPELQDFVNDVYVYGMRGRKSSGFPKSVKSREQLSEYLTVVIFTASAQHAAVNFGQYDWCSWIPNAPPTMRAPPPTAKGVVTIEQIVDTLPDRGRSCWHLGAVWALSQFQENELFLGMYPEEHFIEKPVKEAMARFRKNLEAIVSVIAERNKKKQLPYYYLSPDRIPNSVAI
The experiment in a line: Fluorometric 5-LOX inhibitor screening kit. The following applies: for 5-LOX Percent of İnhibition: at 10 µM. Type of data set: biochemical. The method, then:
COX-1 and COX-2 inhibitory activities were tested using fluorometric COX-1 and COX-2 inhibitor screening kits (Abcam, United Kingdom), and the 5-LOX inhibitory activity was tested using a fluorometric 5-LOX inhibitor screening kit (MyBioSource, USA). These assays are based on the fluorometric detection of Prostaglandin G2 (a product generated by the COX enzyme) or on the fluorometric detection of the intermediate generated by the 5-LOX enzyme. The experiments were conducted in accordance with the manufacturers’ instructions.
For the determination of 5-LOX inhibitory activity, tested compounds were dissolved in DMSO (5 mM stock solution) and then diluted with the same solvent to obtain the test solutions. Test solutions were added to wells in an amount of 2 µL in the final 100 µL reaction volume. […] EC, SC, IC, and all test solutions were analyzed in triplicate.

In data set [3] the target is T2, COX-2 (Homo sapiens, UniProt P35354).
T2 sequence (P35354 18-604): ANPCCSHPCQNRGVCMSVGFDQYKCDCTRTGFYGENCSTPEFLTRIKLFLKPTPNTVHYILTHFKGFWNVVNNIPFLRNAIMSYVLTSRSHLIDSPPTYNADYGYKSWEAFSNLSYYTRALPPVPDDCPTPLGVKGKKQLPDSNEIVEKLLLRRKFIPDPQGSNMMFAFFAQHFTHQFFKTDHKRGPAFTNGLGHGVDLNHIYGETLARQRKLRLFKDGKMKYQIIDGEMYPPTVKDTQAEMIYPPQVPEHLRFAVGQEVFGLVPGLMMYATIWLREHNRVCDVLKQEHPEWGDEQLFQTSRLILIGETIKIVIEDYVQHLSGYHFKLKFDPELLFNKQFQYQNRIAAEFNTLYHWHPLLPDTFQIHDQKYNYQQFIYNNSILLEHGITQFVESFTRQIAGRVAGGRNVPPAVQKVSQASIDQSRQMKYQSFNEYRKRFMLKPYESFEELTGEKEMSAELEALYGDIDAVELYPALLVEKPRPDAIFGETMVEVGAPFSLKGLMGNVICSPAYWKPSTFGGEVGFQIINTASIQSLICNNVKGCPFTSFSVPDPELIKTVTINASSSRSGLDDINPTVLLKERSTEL
Put plainly: Fluorometric COX-2 inhibitor screening kit. The following applies: at 10 µM.
Procedure: For the determination of COX-1 and COX-2 inhibitory activity, the tested compounds were dissolved in dimethyl sulfoxide (DMSO, 5 mM stock solution) and then diluted with the same solvent to obtain the test solutions. The test solutions were further diluted 5× with COX Assay Buffer (2 µL of test solution: 8 µL COX Assay Buffer). […] Solvent Control (SC) was prepared by adding 2 µL DMSO and 8 µL COX Assay Buffer, while Sample (S) and Enzyme Control (EC) were prepared by adding 10 µL of diluted test solution and COX Assay Buffer, respectively, into assigned wells.

For data set [4], the system named is MIA PaCa-2 cell line. Put plainly: 2D anticancer activity, MTT assay. Format: cell-based. Particulars: Homo sapiens, 72 h exposure, read-out: IC50 in 2D cultured MIA PaCa-2 cell line. The method, then:
as §1
For the assessment of anticancer activity of the compounds, the MIA PaCa-2 cells were plated in 48-well microplates at 1.5 × 10^5 cells/mL and incubated for 24 h at 37 °C in 5% CO2 in accordance with a previously reported method. Following the day, the cells were treated with compounds in various concentrations between 0.1–100 µM dissolved in dimethyl sulfoxide (DMSO) (Sigma Aldrich, St. Louis, MO, USA). Following the 72 h of incubation, culture mediums were discarded and 0.5 mg/mL 3-(4,5-Dimethylthiazol-2-yl)-2,5-Diphenyltetrazolium Bromide (MTT) (Sigma Aldrich, St. Louis, MO, USA) was added to each well for an additional 2 h at 37 °C. After 2 h incubation, the medium was discarded and 100 µL of isopropanol (Sigma Aldrich, St. Louis, MO, USA) was added to the wells to dissolve formazan crystals. The optical density was measured at 570 nm wavelength using a microplate reader (Thermo Fisher Scientific Multiskan, Finland). Doxorubicin hydrochloride (DOX) (European Pharmacopoeia standard, Sigma) was used as internal positive control, and 0.5% DMSO (v/v) was used as negative control. The percentage of cell viability was determined by using the following equation:(1) Viability %=(Absorbancecompound)/(Absorbancenegative control)×100%
(In general: Formazan colour is commonly taken as a measure of viable cells.)

Here are results for five molecules from article PMC10223062, “Discovery of Novel Thiophene/Hydrazones: In Vitro and In Silico Studies against Pancreatic Cancer” (Pharmaceutics, 2023).

The molecule `O=C(N/N=C/c1cccc(O)c1)c1cc(-c2ccccc2)c(-c2ccccc2)s1` [7b, N’-[(E)-(3-hydroxyphenyl)methylidene]-4,5-diphenylthiophene-2-carbohydrazide] had a melting point of 225 °C. Besides, the “Spheroid Diameter Day 0” value in data set [1] (0.1 µM group) worked out at 1193.0 ± 13.1. Moreover, in data set [1] (0.1 µM), the “Spheroid Diameter Day 9” value amounted to 5922.5 ± 39.8. In data set [1] (1 µM group), the “Spheroid Diameter Day 0” value is on record as 1185.5 ± 82.7. Also, in data set [1] (1 µM), the “Spheroid Diameter Day 9” value is on record as 6461.5 ± 59.6. The “Spheroid Diameter Day 0” value in data set [1] (10 µM group) is 969.3 ± 28.9. For the same molecule, the “Spheroid Diameter Day 9” value in data set [1] (10 µM) was found to be 4192.0 ± 44.8. In data set [1] (100 µM group), the “Spheroid Diameter Day 0” value amounted to 644.7 ± 26.9. Moreover, the “Spheroid Diameter Day 9” value in data set [1] (100 µM) was determined as 1050.5 ± 18.9. In data set [2], the midpoint of inhibition, the IC50, lay at 93.2 ± 9.89 µM and the “5-LOX Percent of İnhibition” value turned out to be 25.77 ± 2.54%. Further, in data set [3], the “COX-2 Percent of İnhibition” value came to 24.13 ± 1.55%. Further, in data set [4], the concentration for half-maximal inhibition (IC50) was 9.09 ± 1.11 µM.
`COc1ccc(/C=N/NC(=O)c2cc(-c3ccccc3)c(-c3ccccc3)s2)cc1OC` [7g, N’-[(E)-(3,4-dimethoxyphenyl)methylidene]-4,5-diphenylthiophene-2-carbohydrazide]: the melting point was determined as 253 °C. For the same molecule, the “Spheroid Diameter Day 0” value in data set [1] (0.1 µM group) came out at 1222.5 ± 28.73. Moreover, the “Spheroid Diameter Day 9” value in data set [1] (0.1 µM) came to 5969.0 ± 59.6. In addition, the “Spheroid Diameter Day 0” value in data set [1] (1 µM group) is on record as 985.5 ± 65.7. Further, the “Spheroid Diameter Day 9” value in data set [1] (1 µM) stood at 3318.0 ± 35.4. Besides, in data set [1] (10–100 µM), the “Spheroid state at the end of the 9 days” value is listed as “disintegrated”. Moreover, in data set [2], the “5-LOX Percent of İnhibition” value is listed as 20.38 ± 1.98%. In addition, the “COX-2 Percent of İnhibition” value in data set [3] is recorded as 11.41 ± 3.40%. In addition, in data set [4], the IC50 was determined as 24.2 ± 3.76 µM.
`COc1ccc(/C=N/NC(=O)c2cc(-c3ccccc3)c(-c3ccccc3)s2)c(OC)c1OC` [7h, N’-[(E)-(2,3,4-trimethoxyphenyl)methylidene]-4,5-diphenylthiophene-2-carbohydrazide] came in with a melting point of 245 °C. In addition, in data set [1] (0.1 µM group), the “Spheroid Diameter Day 0” value is reported as 1125.5 ± 28.9. The “Spheroid Diameter Day 9” value in data set [1] (0.1 µM) was found to be 5215 ± 18.3. Besides, the “Spheroid Diameter Day 0” value in data set [1] (1 µM group) stood at 1220.5 ± 31.5. Also, in data set [1] (1 µM), the “Spheroid Diameter Day 9” value came out at 6682.5 ± 7.1. Besides, the “Spheroid Diameter Day 0” value in data set [1] (10 µM group) was 1192.0 ± 24.7. Moreover, the “Spheroid Diameter Day 9” value in data set [1] (10 µM) was 8165.5 ±18.1. Besides, in data set [1] (100 µM group), the “Spheroid Diameter Day 0” value was found to be 942.0 ± 58.9. Also, the “Spheroid Diameter Day 9” value in data set [1] (100 µM) is reported as 7936.5 ± 48.6. Also, the “5-LOX Percent of İnhibition” value in data set [2] was determined as 19.87 ± 1.62%. Moreover, the “COX-2 Percent of İnhibition” value in data set [3] is 8.35 ± 0.93%. Moreover, in data set [4], the concentration for half-maximal inhibition (IC50) is > 100 µM.
In turn, `COc1cc(/C=N/NC(=O)c2cc(-c3ccccc3)c(-c3ccccc3)s2)cc(OC)c1OC` [7i, N’-[(E)-(3,4,5-trimethoxyphenyl)methylidene]-4,5-diphenylthiophene-2-carbohydrazide] had a melting point of 254 °C. Further, the “Spheroid Diameter Day 0” value in data set [1] (0.1 µM group) is recorded as 1135.5 ± 2.5. Also, the “Spheroid Diameter Day 9” value in data set [1] (0.1 µM) came to 5523.0 ± 15.2. Further, in data set [1] (1 µM group), the “Spheroid Diameter Day 0” value is recorded as 943.0 ± 12.1. Further, in data set [1] (1 µM), the “Spheroid Diameter Day 9” value was found to be 3539.0 ± 25.4. Further, the “Spheroid Diameter Day 9” value in data set [1] (10 µM) was found to be 2764.0 ± 37.9. The “Spheroid Diameter Day 0” value in data set [1] (100 µM group) was 1023.0 ± 59.5. Besides, in data set [1] (100 µM), the “Spheroid Diameter Day 9” value stood at 2776.5 ± 85.2. The “5-LOX Percent of İnhibition” value in data set [2] was 27.23 ± 0.64%. In addition, the “COX-2 Percent of İnhibition” value in data set [3] was determined as 13.27 ± 0.73%. The IC50 in data set [4] is > 100 µM.
Turning to `O=C(N/N=C/c1ccc2c(c1)OCO2)c1cc(-c2ccccc2)c(-c2ccccc2)s1` [7j, N’-[(E)-(2H-1,3-benzodioxol-5-yl)methylidene]-4,5-diphenylthiophene-2-carbohydrazide], the melting point is 262 °C. Moreover, in data set [1] (0.1 µM group), the “Spheroid Diameter Day 0” value turned out to be 1112.0 ± 35.4. Further, the “Spheroid Diameter Day 9” value in data set [1] (0.1 µM) worked out at 6291.5 ± 45.87. The “Spheroid Diameter Day 0” value in data set [1] (1 µM group) was 998.0 ± 11.5. In data set [1] (1 µM), the “Spheroid Diameter Day 9” value came out at 5934.0 ± 96.3. The “Spheroid Diameter Day 0” value in data set [1] (10 µM group) came out at 1068.0 ± 68.1. For the same molecule, the “Spheroid Diameter Day 9” value in data set [1] (10 µM) amounted to 5217.4 ± 25.7. Further, in data set [1] (100 µM), the “Spheroid state at the end of the 9 days” value was “disintegrated”. For the same molecule, in data set [2], the “5-LOX Percent of İnhibition” value stood at 36.10 ± 3.92%. Moreover, the “COX-2 Percent of İnhibition” value in data set [3] came out at 16.64 ± 1.11%. Moreover, in data set [4], the half-maximal inhibitory concentration (IC50) amounted to 9.65 ± 0.22 µM.

Broadly, the IC50 is the concentration at which inhibition is half-maximal. What is called melting point is the temperature of the solid-liquid transition.
